pKi: −log10 of the molar value.

In test [1] the target is T1, Fructose-bisphosphate aldolase A (Oryctolagus cuniculus, UniProt P00883).
T1 sequence (P00883 whole entry): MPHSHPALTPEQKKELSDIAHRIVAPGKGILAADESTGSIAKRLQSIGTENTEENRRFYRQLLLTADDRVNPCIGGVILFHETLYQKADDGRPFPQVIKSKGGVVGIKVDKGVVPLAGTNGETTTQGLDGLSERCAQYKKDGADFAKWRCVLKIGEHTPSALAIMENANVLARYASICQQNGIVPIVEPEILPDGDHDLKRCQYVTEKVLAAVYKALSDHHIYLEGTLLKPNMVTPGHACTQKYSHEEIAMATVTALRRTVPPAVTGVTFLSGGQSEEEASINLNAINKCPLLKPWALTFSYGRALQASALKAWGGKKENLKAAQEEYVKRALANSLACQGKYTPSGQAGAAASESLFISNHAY
The test is described as follows: Inhibitory activity against class I FBP aldolase from rabbit.

Test [2] deals with T2, Fructose-bisphosphate aldolase class 2 (Escherichia coli K-12, UniProt P0AB71).
T2 sequence (P0AB71 whole entry): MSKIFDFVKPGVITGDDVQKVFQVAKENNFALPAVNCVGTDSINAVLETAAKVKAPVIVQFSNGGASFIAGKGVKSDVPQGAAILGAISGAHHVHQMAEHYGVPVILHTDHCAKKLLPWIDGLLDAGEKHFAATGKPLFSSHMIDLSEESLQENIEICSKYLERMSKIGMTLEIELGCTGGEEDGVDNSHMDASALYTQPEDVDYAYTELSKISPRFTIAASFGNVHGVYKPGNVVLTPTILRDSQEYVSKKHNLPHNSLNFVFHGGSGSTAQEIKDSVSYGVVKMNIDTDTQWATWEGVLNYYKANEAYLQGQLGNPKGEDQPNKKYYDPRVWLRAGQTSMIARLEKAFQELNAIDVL
The test is described as follows: Inhibitory activity against class II FBP aldolase from Escherichia coli.

As to `CS(=O)(=O)NC(=O)COP(=O)(O)O`, the pKi was less than 2.00 in test [1] and 3.46 in test [2].
In the same order, the values of `O=C(CCP(=O)(O)O)NO` are less than 3.00 and less than 3.00.
For `O=C(COP(=O)(O)O)NS(=O)(=O)c1ccccc1`, in that order: less than 2.00 and 4.00.
In the same order, the values of `CS(=O)(=O)NC(=O)CCP(=O)(O)O` are less than 2.00 and less than 2.00.
Take `O=C(CCP(=O)(O)O)NS(=O)(=O)c1ccccc1`: the negative logarithm of the Ki (pKi) in test [1] and in test [2] was less than 2.00 throughout.
As to `O=C(COP(=O)(O)O)NO` [PHOSPHOGLYCOLOHYDROXAMATE], the results for the pKi in test [1] and in test [2] were 6.00 and 8.00, respectively.

The term pKi denotes the negative decadic logarithm of the Ki, by convention in mol/L.

The values are drawn from ChEMBL document CHEMBL1141967, “N-Sulfonyl hydroxamate derivatives as inhibitors of class II fructose-1,6-diphosphate aldolase” (Bioorg Med Chem Lett, 2005).
